Measured values published in patent publication US20060110376A1, “MDA-7 and free radicals in the treatment of cancer” (priority 2002, published 2006).

Columns and labels:
RT2 cells = experiment: MTT growth and trypan blue viability with NAC or Ad.Bcl-XL; format: cell-based, rat; conditions: 10 mM NAC 30 min before 6 Gy; Ad.mda-7 25 m.o.i.
Method: FIG. 15A-D. Ad.mda-7 reduces the expression of Bcl-XL and increases the levels of BAX, consistent with a causal role of Bcl-XL expression in the radiosensitizing effect. Cells were cultured for 24 h after plating then infected with Ad.mda-7 or CMV control viruses (25 m.o.i.). The cells were irradiated (6 Gy) 24 hours after infection. Cells were isolated 96 h after irradiation and processed. Panel A. Ad.mda-7 and radiation suppress the expression of Bcl-XL and enhance BAX levels in RT2 cells 96 h after irradiation. Cells were processed for SDS PAGE and immunoblotting. A representative study (n=3). Panel B. RT2 cells were cultured for 24 h then infected with Ad.mda-7 or CMV control viruses at 25 m.o.i. The cells were irradiated (6 Gy) 24 hours after infection. Cells were isolated 96 h after irradiation and the integrity of nuclear DNA under each condition determined. Data are from two representative experiments. Panel C. […] Cells were processed 96 h after irradiation and cell viability determined via trypan blue exclusion assay. […]
MIT Assay for Determination of Cellular Viability. […] The cytotoxicity of the various treatments was assessed four days after irradiation by measurement of cell viability by use of the MTT assay, as described previously (Mosmann, 1983, J. Immunol. Methods 65:55-63). The plates were read on a Dynatech MR600 Microplate Reader at 540 nm. […]

[1] = system: RCC cell lines A498 and UOK121N; experiment: Cell death (Giemsa staining, trypan blue); format: cell-based, human; conditions: 10 mM N-acetyl cysteine 1 h before As2O3
Method: Cells were plated in 6 well plates (˜5×10^4 cells/well) and 24 h later treated with GST, GST-MDA-7 (both 0.5 nM) and As2O3 (0.5 μM) as indicated. Where indicated, cells were pre-treated with 10 mM N-acetyl cysteine 1 h prior to addition of As2O3. Cells were isolated 96 h after GST-MDA-7 treatment. Cell death was determined on isolated fixed cells by Giemsa staining for apoptosis and necrosis (presented as a single value) as described (30). Panel A. UOK121N cells. Panel B. A498 cells. […]
Assessment of Apoptosis and Cell Death. […] For each condition, 10 randomly selected fields per slide were evaluated, encompassing at least 15000 cells (Dai et al., 2002, Cell Cycle 1:143-152; Qiao et al., 2001, Mol. Biol. Cell 12:2629-2645). To confirm the results of morphologic analysis, in some cases cells were also evaluated by TUNEL staining and oligonucleosomal DNA fragmentation assay as follows; staining, cytospin slides were fixed with 4% formaldehyde/PBS for 10 min, treated with acetic acid/ethanol (1:2) for 5 min, and incubated with terminal transferase reaction mixture containing 1× terminal transferase reaction buffer, […] terminal transferase, 2.5 mM CoCl2, and 2 pmol fluorescein-12-dUTP (Boehringer Mannheim, Indianapolis, Ind.) at 37° C. for 1 h. […]
Assessment of Cell Viability. […] Cells (˜400) were counted in all four fields of a hemocytometer.

## CC(=O)N[C@@H](CS)C(=O)O [NAC, N-acetyl-cysteine]
RT2 cells
  effect of NAC on Ad.mda-7 + radiation cell killing and proliferation: abolished the enhancement in cell killing and reduction in proliferation
[1]
  effect of N-acetyl-cysteine on cell killing by GST-MDA-7 + arsenic trioxide: significantly reduced cell killing
